Results: patent US20240270762A1, “PENICILLIN-BINDING PROTEIN INHIBITORS” (priority 2021, published 2024)
Values after ≈ are worked out from the molar mass of the structure shown.

Tests used:
[1] = target: T1, PBP3 from Escherichia coli (K-12) (Escherichia coli, UniProt P0AD68); assay: Bocillin-FL fluorescence polarization competition binding, E. coli PBP3
T1 construct: made in house
How it was run: (§1)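 Purified PBP was preincubated with inhibitor (E. coli PBP3 1.5 μM, 30 min; P. aeruginosa PBP3 0.75 μM, A. baumannii PBP3 0.2 μM and PBP1a 1 μM, 15 min), then Bocillin-FL (0.1 μM; 0.05 μM for PBP1a) added and FP read up to 60 min. EC50 = 50% loss of bound probe.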

[2] = target: T2, PBP3 from Acinetobacter baumannii (ATCC 19606) (Acinetobacter baumannii, UniProt A0ABX6CK25); assay: Bocillin-FL fluorescence polarization competition binding, A. baumannii PBP3; details: fluorescence polarization competition binding assay using Bocillin-FL; read-out: A. baumannii PBP3 Potency
T2 sequence (A0ABX6CK25 64-610): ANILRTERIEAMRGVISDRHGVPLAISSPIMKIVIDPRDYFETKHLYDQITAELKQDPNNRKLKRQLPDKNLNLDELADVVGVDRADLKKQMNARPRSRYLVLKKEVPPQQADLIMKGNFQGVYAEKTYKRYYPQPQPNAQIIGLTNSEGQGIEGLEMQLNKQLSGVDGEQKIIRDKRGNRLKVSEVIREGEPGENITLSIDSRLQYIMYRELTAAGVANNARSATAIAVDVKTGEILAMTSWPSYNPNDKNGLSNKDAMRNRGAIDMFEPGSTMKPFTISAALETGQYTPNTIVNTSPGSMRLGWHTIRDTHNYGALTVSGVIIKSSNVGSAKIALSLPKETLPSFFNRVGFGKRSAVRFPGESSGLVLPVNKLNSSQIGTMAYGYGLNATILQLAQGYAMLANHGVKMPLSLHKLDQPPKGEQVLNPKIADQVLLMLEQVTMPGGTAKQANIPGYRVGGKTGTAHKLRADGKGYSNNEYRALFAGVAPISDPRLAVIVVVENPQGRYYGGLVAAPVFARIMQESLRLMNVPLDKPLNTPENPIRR
How it was run: as §1

N. gonorrhoeae WHO G = assay: Liquid broth MIC in Fastidious broth; details: Neisseria gonorrhoeae, read-out: Minimum Inhibitory Concentration, WHO G
[3] = target: T3, PBP1a from Acinetobacter baumannii (ATCC 19606) (Acinetobacter baumannii, UniProt A0ABX6CK30); assay: Bocillin-FL fluorescence polarization competition binding, A. baumannii PBP1a; details: fluorescence polarization competition binding assay using Bocillin-FL; read-out: A. baumannii PBP1a Potency
T3 sequence (A0ABX6CK30 1-851): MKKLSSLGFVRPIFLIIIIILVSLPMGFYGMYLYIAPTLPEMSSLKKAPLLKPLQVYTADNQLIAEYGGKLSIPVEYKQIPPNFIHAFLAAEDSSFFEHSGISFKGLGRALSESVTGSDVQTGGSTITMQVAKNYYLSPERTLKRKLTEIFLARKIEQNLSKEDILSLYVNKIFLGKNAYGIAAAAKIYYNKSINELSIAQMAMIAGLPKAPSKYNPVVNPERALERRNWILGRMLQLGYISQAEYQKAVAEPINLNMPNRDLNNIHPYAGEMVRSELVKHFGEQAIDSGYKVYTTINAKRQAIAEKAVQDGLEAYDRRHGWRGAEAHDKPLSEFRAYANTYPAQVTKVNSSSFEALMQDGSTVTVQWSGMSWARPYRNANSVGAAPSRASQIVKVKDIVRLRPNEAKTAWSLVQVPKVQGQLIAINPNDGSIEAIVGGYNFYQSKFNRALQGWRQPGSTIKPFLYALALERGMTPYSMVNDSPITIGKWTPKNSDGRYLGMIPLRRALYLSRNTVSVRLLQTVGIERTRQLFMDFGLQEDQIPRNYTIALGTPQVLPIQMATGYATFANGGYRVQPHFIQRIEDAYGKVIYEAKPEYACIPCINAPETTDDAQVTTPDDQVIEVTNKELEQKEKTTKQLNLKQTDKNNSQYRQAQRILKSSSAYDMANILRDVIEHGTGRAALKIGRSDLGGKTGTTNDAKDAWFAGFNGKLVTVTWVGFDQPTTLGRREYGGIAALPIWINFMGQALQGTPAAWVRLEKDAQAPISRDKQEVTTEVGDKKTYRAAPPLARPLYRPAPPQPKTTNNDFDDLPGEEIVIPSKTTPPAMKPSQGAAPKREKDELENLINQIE
How it was run: as §1

T1 sequence (P0AD68 1-577): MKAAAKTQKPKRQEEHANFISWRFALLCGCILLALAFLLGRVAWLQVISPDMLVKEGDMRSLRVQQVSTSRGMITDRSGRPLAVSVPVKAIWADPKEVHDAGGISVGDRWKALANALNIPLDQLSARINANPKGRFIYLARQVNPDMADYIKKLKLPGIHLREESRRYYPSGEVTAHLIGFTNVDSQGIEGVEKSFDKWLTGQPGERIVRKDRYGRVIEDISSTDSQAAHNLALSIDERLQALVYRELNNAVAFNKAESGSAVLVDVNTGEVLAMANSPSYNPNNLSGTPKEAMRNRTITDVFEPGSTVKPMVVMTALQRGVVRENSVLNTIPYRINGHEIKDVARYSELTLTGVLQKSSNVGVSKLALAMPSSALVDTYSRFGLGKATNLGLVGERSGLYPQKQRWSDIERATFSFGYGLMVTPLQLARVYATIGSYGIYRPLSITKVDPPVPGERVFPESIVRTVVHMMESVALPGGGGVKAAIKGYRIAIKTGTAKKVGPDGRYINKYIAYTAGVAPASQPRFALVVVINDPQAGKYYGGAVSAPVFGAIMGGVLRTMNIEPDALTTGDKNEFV

Structure (SMILES)	EC50 [1] [µM]	IC50 [2] [µM]	MIC (N. gonorrhoeae WHO G) [µg/mL]	IC50 [3] [µM]
Cc1cnccc1C(=O)NCCCN1CCN(C(=O)NC(C(=O)N[C@H]2Cc3ccc(F)c(C(=O)O)c3OB2O)c2cc(F)c(O)c(O)c2Cl)C(=O)C1=O (stereo partly drawn) [Example 297, (3R)-3-(2-(2-chloro-5-fluoro-3,4-dihydroxyphenyl)-2-(4-(3-(3-methylisonicotinamido)propyl)-2,3-dioxopiperazine-1-carboxamido)acetamido)-7-fluoro-2-hydroxy-3,4-dihydro-2H-benzo[e][1,2]oxaborinine-8-carboxylic acid]	< 10	< 10	16 to 32 (≈ 21.1 to 42.2 µM)	> 250
O=C(NCCCN1CCN(C(=O)NC(C(=O)N[C@H]2Cc3ccc(F)c(C(=O)O)c3OB2O)c2cc(F)c(O)c(O)c2Cl)C1=O)c1ccc(O)cc1 (stereo partly drawn) [Example 280, (3R)-3-(2-(2-chloro-5-fluoro-3,4-dihydroxyphenyl)-2-(3-(3-(4-hydroxybenzamido)propyl)-2-oxoimidazolidine-1-carboxamido)acetamido)-7-fluoro-2-hydroxy-3,4-dihydro-2H-benzo[e][1,2]oxaborinine-8-carboxylic acid]	10 to 50	< 10	16 to 32 (≈ 21.9 to 43.7 µM)	> 250
O=C(NCCCN1CCN(C(=O)NC(C(=O)N[C@H]2Cc3ccc(F)c(C(=O)O)c3OB2O)c2cc(F)c(O)c(O)c2Cl)C(=O)C1=O)c1ccc(O)c(F)c1 (stereo partly drawn) [Example 304, (3R)-3-(2-(2-chloro-5-fluoro-3,4-dihydroxyphenyl)-2-(4-(3-(3-fluoro-4-hydroxybenzamido)propyl)-2,3-dioxopiperazine-1-carboxamido)acetamido)-7-fluoro-2-hydroxy-3,4-dihydro-2H-benzo[e][1,2]oxaborinine-8-carboxylic acid]	< 10	< 10	16 to 32 (≈ 20.6 to 41.1 µM)	> 250
O=C(NCCCN1CCN(C(=O)NC(C(=O)N[C@H]2Cc3ccc(F)c(C(=O)O)c3OB2O)c2cc(F)c(O)c(O)c2Cl)C1=O)c1cccnc1 (stereo partly drawn) [Example 281, (3R)-3-(2-(2-chloro-5-fluoro-3,4-dihydroxyphenyl)-2-(3-(3-(nicotinamido)propyl)-2-oxoimidazolidine-1-carboxamido)acetamido)-7-fluoro-2-hydroxy-3,4-dihydro-2H-benzo[e][1,2]oxaborinine-8-carboxylic acid]	10 to 50	< 10	16 to 32 (≈ 22.3 to 44.6 µM)	> 250
O=C(NCCS(=O)(=O)N1CCN(C(=O)N[C@H](C(=O)N[C@H]2Cc3ccc(F)c(C(=O)O)c3OB2O)c2cc(F)c(O)c(O)c2Cl)C1=O)c1ccc(O)cc1 [Example 286, (R)-3-((S)-2-(2-chloro-5-fluoro-3,4-dihydroxyphenyl)-2-(3-((2-(4-hydroxybenzamido)ethyl)sulfonyl)-2-oxoimidazolidine-1-carboxamido)acetamido)-7-fluoro-2-hydroxy-3,4-dihydro-2H-benzo[e][1,2]oxaborinine-8-carboxylic acid]	> 250	50 to 250	> 64	> 250
O=C(O)c1c(F)ccc2c1OB(O)[C@@H](NC(=O)C(NC(=O)N1CCN(C3CCN(C(=O)Nc4cccc(O)c4F)CC3)C(=O)C1=O)c1cc(F)c(O)c(O)c1Cl)C2 (stereo partly drawn) [Example 478, (3R)-3-(2-(2-chloro-5-fluoro-3,4-dihydroxyphenyl)-2-(4-(1-((2-fluoro-3-hydroxyphenyl)carbamoyl)piperidin-4-yl)-2,3-dioxopiperazine-1-carboxamido)acetamido)-7-fluoro-2-hydroxy-3,4-dihydro-2H-benzo[e][1,2]oxaborinine-8-carboxylic acid]	–	< 10	–	> 250
O=C(NCCCS(=O)(=O)N1CCN(C(=O)NC(C(=O)N[C@H]2Cc3ccc(F)c(C(=O)O)c3OB2O)c2cc(F)c(O)c(O)c2Cl)C1=O)Nc1ccncc1 (stereo partly drawn) [Example 291, (3R)-3-(2-(2-chloro-5-fluoro-3,4-dihydroxyphenyl)-2-(2-oxo-3-((3-(3-(pyridin-4-yl)ureido)propyl)sulfonyl)imidazolidine-1-carboxamido)acetamido)-7-fluoro-2-hydroxy-3,4-dihydro-2H-benzo[e][1,2]oxaborinine-8-carboxylic acid]	< 10	< 10	16 to 32 (≈ 20.1 to 40.2 µM)	> 250
O=C(NCCCN1CCN(C(=O)N[C@@H](C(=O)N[C@H]2Cc3ccc(F)c(C(=O)O)c3OB2O)c2cc(F)c(O)c(O)c2Cl)C(=O)C1=O)c1ccncc1O [Example 296, (R)-3-((R)-2-(2-chloro-5-fluoro-3,4-dihydroxyphenyl)-2-(4-(3-(3-hydroxyisonicotinamido)propyl)-2,3-dioxopiperazine-1-carboxamido)acetamido)-7-fluoro-2-hydroxy-3,4-dihydro-2H-benzo[e][1,2]oxaborinine-8-carboxylic acid]	< 10	< 10	16 to 32 (≈ 21 to 42.1 µM)	> 250
O=C(O)c1c(F)ccc2c1OB(O)[C@@H](NC(=O)C(NC(=O)N1CCN(Cc3ccc(O)c(O)c3Cl)C(=O)C1=O)c1cc(F)c(O)c(O)c1Cl)C2 (stereo partly drawn) [Example 292, (3R)-3-(2-(4-(2-chloro-3,4-dihydroxybenzyl)-2,3-dioxopiperazine-1-carboxamido)-2-(2-chloro-5-fluoro-3,4-dihydroxyphenyl)acetamido)-7-fluoro-2-hydroxy-3,4-dihydro-2H-benzo[e][1,2]oxaborinine-8-carboxylic acid]	< 10	< 10	> 64	> 250
O=C(NCCCN1CCN(C(=O)N[C@@H](C(=O)N[C@H]2Cc3ccc(F)c(C(=O)O)c3OB2O)c2cc(F)c(O)c(O)c2Cl)C1=O)Nc1ccc(O)cc1 [Example 284, (R)-3-((R)-2-(2-chloro-5-fluoro-3,4-dihydroxyphenyl)-2-(3-(3-(3-(4-hydroxyphenyl)ureido)propyl)-2-oxoimidazolidine-1-carboxamido)acetamido)-7-fluoro-2-hydroxy-3,4-dihydro-2H-benzo[e][1,2]oxaborinine-8-carboxylic acid]	10 to 50	< 10	4 to 8 (≈ 5.36 to 10.7 µM)	> 250
O=C(O)c1c(F)ccc2c1OB(O)[C@@H](NC(=O)C(NC(=O)N1CCN(CC3CCN(C(=O)c4cccc(O)c4)CC3)C(=O)C1=O)c1cc(F)c(O)c(O)c1Cl)C2 (stereo partly drawn) [Example 475, (3R)-3-(2-(2-chloro-5-fluoro-3,4-dihydroxyphenyl)-2-(4-((1-(3-hydroxybenzoyl)piperidin-4-yl)methyl)-2,3-dioxopiperazine-1-carboxamido)acetamido)-7-fluoro-2-hydroxy-3,4-dihydro-2H-benzo[e][1,2]oxaborinine-8-carboxylic acid]	–	< 10	–	> 250
O=C(O)c1c(F)ccc2c1OB(O)[C@@H](NC(=O)C(NC(=O)N1CCN(CC3CCN(C(=O)Nc4cccc(O)c4)CC3)C(=O)C1=O)c1cc(F)c(O)c(O)c1Cl)C2 (stereo partly drawn) [Example 477, (3R)-3-(2-(2-chloro-5-fluoro-3,4-dihydroxyphenyl)-2-(4-((1-((3-hydroxyphenyl)carbamoyl)piperidin-4-yl)methyl)-2,3-dioxopiperazine-1-carboxamido)acetamido)-7-fluoro-2-hydroxy-3,4-dihydro-2H-benzo[e][1,2]oxaborinine-8-carboxylic acid]	–	< 10	–	> 250
